Entries after “also recorded” stand apart in the source; their conditions may differ. Like-named read-outs stand apart in the source and are kept apart here.
Key:
Format in all cases: cell-based, human
Teff = assay: [3H] thymidine incorporation suppression assay, treated Treg mixed with untreated Teff; conditions: 72 hour suppression assay
Protocol: A thymidine incorporation assay was performed with anti-CD3/CD28 and IL-2 used to stimulate each well containing 2*10^5 viable cells. Varying ratios of effector T cells (Teff) to Treg were combined in each well and all wells were run in triplicate in U-bottom 96 well plates. At 48 hours 1 μCi [^3H] Thymidine (Perkin-Elmer, Waltham, Mass.) was added to each well, and 24 hours later the cells were assessed for radioactivity on a Top Count NXT (Perkin-Elmer). Treg mediated suppression of growth was determined by the following equation: (No Treatment Teff [cpm]−(Treg & No Treatment Teff [cpm]))/No Treatment Teff [cpm].

Treg = assay: Sorted Treg and Teff treated with drug for 7 days, co-cultured with AaPC to Day 21; conditions: for Expression of CD25, CTLA-4, or loss of IL-2: Day 21; for Expression of Treg-specific marker LAP: Day 21, early drug treatment
From the text: Healthy donor derived peripheral blood from MDACC Blood Bank, Houston, Tex., was subjected to density gradient centrifugation to isolate mononuclear cells which were either rested in complete media (CM) or frozen as previously outlined. The use of rested or frozen peripheral blood derived mononuclear cells (PBMC) is outlined in each experiment. T cells from PBMC were stimulated using thawed OKT3 antibody-loaded K562 clone #4, an activating and propagating cell (AaPC). See Singh H, et al, PloS one 2013, 8(5). The presence of mycoplasma was tested in AaPC before stimulation of T cells. Cell counting was accomplished by 0.1% Trypan Blue (Sigma-Aldrich, T8154) exclusion using automated cell counting (Nexcelcom, Lawrence, Mass.). Cell Isolation was accomplished using magnetic bead based sorting with the CD4+, CD25+ Regulatory T Cell Isolation Kit following the manufacturer's instructions (Miltenyi Biotec, San Diego, Calif., 130-091-301). Briefly, CD4^+ T cells were negatively selected before sorting one time with anti-CD25 beads was used to differentiate between effector T cells (CD25^neg) and T^reg (CD25^pos).
Sorted Treg Differentiate the Effects of MTX, 5-FU, and G418 on Selection in Bulk PBMC. Magnetic sorting for CD4 and CD25 expressing PBMC yielded a CD4+ CD25+ population that is widely considered to contain Treg, and a CD25neg population of effector T cells (Teff). See Miyara M. et al., Immunity 2009, 30(6):899-911. These populations were treated with the same concentrations of MTX, 5-FU, G418, or no treatment, as above, for the first 7 days of co-culture with AaPC. After this period of time, co-culture continued without drug by stimulating with AaPC every 7 days until Day 21. Cells were assayed at this time for expression of CD25, CTLA-4, LAP, and IL-2, as before. The experimental outline can be seen in FIG. 15A. A [^3H] thymidine incorporation assay was also performed to determine the effect of each drug on the functionality of propagated Treg.

Jurkat = assay: AThyR transgene selection in electroporated Jurkat, eGFP+ viable cells by PI exclusion; conditions: anti-folate toxicity
Protocol: The Amaxa Nucleofector® II (Lonza, Allendale, N.J.) was used to electroporate both Jurkat and human PBMC. Electroporation of Jurkat cells utilized a modified buffer (Chicaybam et al., Proceedings of the National Academy of Sciences of the United States of America 2002, 99(6):3400-3405) containing 5 mM KCl, 15 mM MgCl2, 120 mM Na2HPO4/NaH2PO4, pH 7.2, and 50 mM DMSO, where 10^6 Jurkat cells per cuvette were electroporated using program T-14 before immediate transfer to CM. The addition of drug occurred 48 hours after electroporation and cell culture remained undisturbed until sampling for gene expression on days 10-12 post electroporation. Human PBMC electroporation followed a previously described protocol (Rushworth et al., supra). […]
To test the enhanced survival of each AThyR, constructs individually expressing DHFR^FS, TYMS^SS, and NeoR were ligated into the same backbone containing Sleeping Beauty (SB) transposable elements upstream of eGFP (FIG. 1B), eGFP was used to track the predominance of surviving genetically-modified T cells. […] Jurkat were assessed for eGFP expression in viable cells by propidium iodide (PI) exclusion on day 10-12 (FIG. 1C). […] Overall survival and mean fluorescence intensity (MFI) of eGFP are also given in FIG. 2AI and AII, respectively.

TCD4, FoxP3 [1] = assay: Selection or depletion of TCD4, FoxP3 in PBMC stimulated with anti-CD3/CD28 and IL-2 in presence of drug; conditions: for Selection of TCD4, FoxP3 in surviving population at lethal dose: freshly derived PBMC, day 7; for Selection or depletion of TCD4, FoxP3, dose dependence: thawed PBMC, 7 days
Protocol: (§1) Culture Conditions: Acellular stimulation was accomplished as previously described using soluble anti-CD3—30 ng/mL, anti-CD28—100 ng/mL, and human IL-2—50 IU/mL, as previously described. […] Acellular stimulation experiments received addition of toxic drug or treatment on the same day as stimulation.
Cultured T cells were washed in FACS staining solution[95] before surface antibody staining was performed in FACS staining solution with fluorochrome-conjugated antibodies at 4° C. for at least 30 minutes. Intracellular transcription factor and cytokine staining utilized the FoxP3/transcription factor staining buffer set manufacturer's protocol (eBioscience, 00-5523-00), and was performed following surface staining. The BD FACSCalibur (BD Biosciences) analyzed most samples expressing FoxP3. Flow cytometry data analysis utilized FlowJo v 10.0.5 (Tree Star Inc., Ashland, Oreg.). Flow cytometric imaging of cells stained for phosphorylated antigens was accomplished using the ImageStreamX Mark II (Amnis, Seattle, Wash.) with the following protocol; after surface staining, samples were fixed in 100% methanol (Sigma) for 1 hour at 4° C. before washing and staining in FoxP3/transcription factor staining buffer set wash buffer as outlined by the manufacturer's protocol. Analysis of image cytometry data utilized Amnis IDEAS v 6.0.
Drug Selection of TCD4, FoxP3 by MTX Occurs in Part Through Toxicity. In order to determine how MTX contributes to the selection of TCD4, FoxP3, freshly derived PBMC were stimulated with anti-CD3/CD28 antibodies and IL-2 in the presence of cytotoxic drugs or lethal γ-irradiation. […] See Bar-Nun S. et al., Biochimica et biophysica acta 1983, 741(1):123-127. […] See Cao M. et al., International journal of radiation biology 2011, 87(1):71-80.

PBMC = system: PBMC
Protocol: as §1
Drug Selection of TCD4, FoxP3 by MTX Occurs in Part Through Toxicity. In order to determine how MTX contributes to the selection of TCD4, FoxP3, freshly derived PBMC were stimulated with anti-CD3/CD28 antibodies and IL-2 in the presence of cytotoxic drugs or lethal γ-irradiation. After 7 days there was a significant difference in survival markers Annexin V and 7-AAD in stimulated T cells receiving any cytotoxic insult with stimulation (FIG. 1B-I). The selection of TCD4, FoxP3 was not as consistent as cytotoxicity. […] With the exception of ribosomal elongation inhibitor G418, each cytotoxic treatment appeared to increase the percentage of surviving TCD4, FoxP3. See Bar-Nun S. et al., Biochimica et biophysica acta 1983, 741(1):123-127. […] Without wishing to be bound by theory, this pathway is likely related to the reduced proliferation rate of Treg, and appears to be ribosomally mediated as G418 can inhibit this general trend of increasing TCD4, FoxP3 percentage. See Cao M. et al., International journal of radiation biology 2011, 87(1):71-80.

TCD4, FoxP3 [2] = assay: Depletion of TCD4, FoxP3 in resting, unstimulated PBMC
From the text: Representative flow diagrams of resting PBMC in FIG. 14D—upper panel show the loss in expression of FoxP3 for CD4+ T cells after treatment with G418. […] Thus, […] TCD4, FoxP3 are depleted following treatment with aminoglycoside G418.

Q: For `CN(Cc1cnc2nc(N)nc(N)c2n1)c1ccc(C(=O)N[C@@H](CCC(=O)O)C(=O)O)cc1` [MTX, methotrexate], which “Suppression by treated Treg above untreated Treg” value (Teff) is on record?
A: improved suppression

Q: What about the “Expression of CD25, CTLA-4, or loss of IL-2” value (Treg) of the same molecule?
A: no significant difference

Q: What about the “Expression of Treg-specific marker LAP” value (Treg) of the same molecule?
A: significantly increased

Q: What about the “Relative toxicity to T cells” value (Jurkat) of the same molecule?
A: more toxic to T cells than Pem

Q: And the “Selection of TCD4, FoxP3 in surviving population at lethal dose” value (TCD4, FoxP3 [1])?
A: Significant increases

Q: And the “Selection or depletion of TCD4, FoxP3, dose dependence” value (TCD4, FoxP3 [1])?
A: significant elevation of TCD4, FoxP3, at lower doses

Q: What about the “Cytotoxicity, dose dependence” value (PBMC) of the same molecule?
A: cytotoxic at all doses tested

Q: How did the “Cytotoxicity, dose dependence” value (PBMC) turn out when `CO[C@H]1C[C@@H]2CC[C@@H](C)[C@@](O)(O2)C(=O)C(=O)N2CCCC[C@H]2C(=O)O[C@H]([C@H](C)C[C@@H]2CC[C@@H](O)[C@H](OC)C2)CC(=O)[C@H](C)/C=C(\C)[C@@H](O)[C@@H](OC)C(=O)[C@H](C)C[C@H](C)/C=C/C=C/C=C/1C` [Rapamycin] was run?
A: only occurred at the highest doses

Q: Which “Selection or depletion of TCD4, FoxP3, dose dependence” value (TCD4, FoxP3 [1]) does the source give for `Cc1c(N)nc([C@H](CC(N)=O)NC[C@H](N)C(N)=O)nc1C(=O)N[C@H](C(=O)N[C@H](C)[C@@H](O)[C@H](C)C(=O)N[C@H](C(=O)NCCC1=N[C@@H](c2nc(C(=O)NCCCCN=C(N)N)cs2)CS1)[C@@H](C)O)[C@@H](O[C@@H]1O[C@@H](CO)[C@@H](O)[C@H](O)[C@@H]1O[C@H]1O[C@H](CO)[C@@H](O)[C@H](OC(N)=O)[C@@H]1O)c1cnc[nH]1` [Zeocin] here?
A: insignificant

Q: What does the source list for `O=c1[nH]cc(F)c(=O)[nH]1` [5-FU, 5-fluorouracil]?
A: Suppression by treated Treg above untreated Treg (Teff): improved suppression; Expression of CD25, CTLA-4, or loss of IL-2 (Treg): no significant difference; Expression of Treg-specific marker LAP (Treg): significantly increased; Selection of TCD4, FoxP3 in surviving population at lethal dose (TCD4, FoxP3 [1]): Significant increases

Q: Which results are given for `CN[C@@H]1[C@@H](O)[C@@H](O[C@@H]2[C@@H](O)[C@H](O[C@H]3O[C@H]([C@@H](C)O)[C@@H](O)[C@H](O)[C@H]3N)[C@@H](N)C[C@H]2N)OC[C@]1(C)O` [G418]?
A: Depletion of TCD4, FoxP3 under resting conditions (TCD4, FoxP3 [2]; PBMC rested in CM 9 days): Significant depletion; Depletion of CD4+, FoxP3+, Ki-67+ cells (TCD4, FoxP3 [2]; resting PBMC, 9 days): significant G418 mediated depletion; Depletion of CD4+, FoxP3+, Ki-67neg cells (TCD4, FoxP3 [2]; resting PBMC, 9 days): not significantly depleted; Surviving TCD4, FoxP3 in the Treg compartment (Treg; Day 21, drug for first 7 days): persistently decreased surviving Treg; Treg markers (CD25, CTLA-4, decreased IL-2, LAP) with FoxP3 expression (Treg; after stimulation on day 21): decreased; Selection of TCD4, FoxP3 in surviving population at lethal dose (TCD4, FoxP3 [1]): depleted; Selection or depletion of TCD4, FoxP3, dose dependence (TCD4, FoxP3 [1]): significantly depleted TCD4, FoxP3 at two moderate drug doses; also recorded: Depletion; Cytotoxicity, dose dependence (PBMC; thawed PBMC, 7 days): significantly cytotoxic at all doses tested

Q: Which “Depletion of TCD4, FoxP3 in resting PBMC” value (TCD4, FoxP3 [2]; 7 days) does the source give for gentamicin here?
A: depletion of TCD4, FoxP3
